Results published in BigSolDB 2.1.

O=C(O)c1c(O)cccc1O
solubility (mole fraction)
Settings | 278.15 K | 283.15 K | 288.15 K | 293.15 K | 298.15 K | 303.15 K | 308.15 K | 313.15 K | 318.15 K
in ethanol | 0.221 | 0.234 | 0.245 | 0.258 | 0.273 | 0.286 | 0.294 | 0.306 | 0.318
in isopropanol | 0.225 | 0.24 | 0.254 | 0.268 | 0.28 | 0.292 | 0.303 | 0.315 | 0.323
in methanol | 0.2 | 0.214 | 0.227 | 0.247 | 0.261 | 0.276 | 0.284 | 0.3 | 0.314
in n-butanol | 0.189 | 0.202 | 0.216 | 0.23 | 0.245 | 0.26 | 0.275 | 0.29 | 0.306
